# Experiments:
# [1] = test system: MT-SOD1 inclusions in SK-N-SH cells; test: SOD1 inclusions by immunofluorescence in SK-N-SH cells; type: cell-based; details: SK-N-SH cells expressing MT-SOD1, 24 h
# Description: Cells on coverslips were washed with PBS, fixed with 4% PFA for 30 min at room temperature and then permeabilized in 0.1% Triton X-100/PBS for 10 min. After incubation in blocking solution (goat serum diluted 1:200 in PBS) for 1 h, cells were incubated with primary antibodies in blocking buffer for overnight at 4 °C. Finally, the cells were incubated with FITC- or Rhodamine-conjugated secondary antibody at 4 °C for 4 h. The nucleus was stained with 4, 6-diamidino-2-phenylindole and the endoplasmic reticulum (ER) was stained using the ER-Tracker Red dye for 10 min. Cells were washed three times with PBS, then the coverslips were mounted with the mounting solution (H-5501; Vector Laboratories, Burlingame, CA) and observed by fluorescence microscopy using Zeiss Apotome 2 (Software; Axiovision 4.8, Baden-Württemberg, Germany) and CELENA X (Logos Biosystems, Annandale, VA).
# Cells with SOD1 aggregation were counted in the fluorescent images. Depending on the intensity of SOD1, cells with SOD1 aggregates were counted in randomly selected fields and quantified as a percentage to the total cells counted. In addition, to calculate the colocalization of the three colors of SOD1, we counted the cells where the three colored images overlapped at a point of high intensity. […]
# Fig. S1. […] After incubation, cells were fixed with 4 % PFA and observed under the fluorescence microscope. […]
# [2] = target: T1, SOD1-G147P (Homo sapiens, UniProt P00441, G148P); test: SOD1 oligomerization induced by trimer stabilizer overexpression; type: cell-based
# T1 construct: expressed in transfected cells
# T1 sequence (P00441 whole entry G148P): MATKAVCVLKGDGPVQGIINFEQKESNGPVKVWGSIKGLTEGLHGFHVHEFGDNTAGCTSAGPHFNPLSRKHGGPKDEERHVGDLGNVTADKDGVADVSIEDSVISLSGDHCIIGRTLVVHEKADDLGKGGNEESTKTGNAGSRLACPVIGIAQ
# Description: For SDS-PAGE, proteins were extracted from cells with the RIPA buffer (50 mmol/L Tris–Cl, pH 7.5, 150 mmol/L NaCl, 1% NP-40, 0.1% SDS and […]). To detect the oligomer status, the cells were harvested with the TNNI buffer (50 mmol/L Tris–Cl, pH 7.5, 150 mmol/L NaCl, 0.3% NP-40, 100 mmol/L iodoacetamide, protease inhibitor cocktails) and reacted with 0.04% glutaraldehyde (Glu) for 30 min, and then SDS-PAGE was performed using the pan-SOD1 antibody. Samples were separated via SDS-PAGE and transferred to PVDF membrane. Blotted membranes were blocked by 3% skim milk containing TBST buffer for 1 h and incubated with specific antibodies. The following primary antibodies were used: pan-SOD1 (GTX100554) from Genetex (Irvine, CA); misfolded SOD1-specific antibody (B8H10) from MediMabs (Montreal, Canada); Actin (sc-1616), GST (sc-138), and GFP (Green fluorescent protein; sc-8036) antibodies from Santa Cruz Biotechnology (Santa Cruz, CA); TDP-43 antibody (10782–2-AP) from Proteintech (Rosemont, IL); anti-FLAG (Sigma; F3165) from Sigma-Aldrich (St. Louis, MO). HRP-conjugated goat anti-mouse, goat anti-rabbit and mouse anti-goat antibodies (Pierce, Thermo Fisher Scientific, Inc., Rockford, IL) were used as secondary antibodies. The blots were detected using an ECL assay (Advansta) and images were acquired using the […] ImageQuant 800 (Cytiva) system and an X-Ray film detector. […]
# [3] = Metabolic stability in liver microsomes; type: in vitro ADME; details: SD rat liver microsomes
structure (smiles),measurement,setting,value
COc1cc(C=CCOC2Cc3cc4ccc(=O)oc4cc3OC2(C)C)ccc1[N+](=O)[O-] (stereo not drawn) [PRG-A-04],effect on SOD1 inclusions,[1],suppressed SOD1 inclusions
same,effect on SOD1 oligomerization caused by trimer-stabilizing mutant,[2],reduced the SOD1 oligomerization
same,extent of metabolism in liver microsomes,[3],highly metabolized

# Source: publication PMC12067741, “Inhibition of SOD1 trimerization is a novel drug target for ALS disease” (Translational Neurodegeneration, 2025)
